Test results reported in US20090203605A1, “Methods For Treating A Condition Characterized By Dysfunction In Protein Homeostasis” (THE SCRIPPS RESEARCH INSTITUTE, priority 2008, published 2009).
Blank lines part the entries; values can stand above or below the compound they belong to.

Columns and labels:
G269S/1278insTATC HexA = molecular target: T1, G269S/1278insTATC HexA (Homo sapiens, UniProt P06865, G269S); assay: Hex α-site cell assay in Tay-Sachs fibroblast cell line; type: cell-based; details: ADNJ 20 to 50 μM, exposed once without media changes, after 192 h
T1 construct: host or cells: Tay-Sachs patient fibroblasts, lysed for the MUGS assay
T1 sequence (P06865 89-529 G269S): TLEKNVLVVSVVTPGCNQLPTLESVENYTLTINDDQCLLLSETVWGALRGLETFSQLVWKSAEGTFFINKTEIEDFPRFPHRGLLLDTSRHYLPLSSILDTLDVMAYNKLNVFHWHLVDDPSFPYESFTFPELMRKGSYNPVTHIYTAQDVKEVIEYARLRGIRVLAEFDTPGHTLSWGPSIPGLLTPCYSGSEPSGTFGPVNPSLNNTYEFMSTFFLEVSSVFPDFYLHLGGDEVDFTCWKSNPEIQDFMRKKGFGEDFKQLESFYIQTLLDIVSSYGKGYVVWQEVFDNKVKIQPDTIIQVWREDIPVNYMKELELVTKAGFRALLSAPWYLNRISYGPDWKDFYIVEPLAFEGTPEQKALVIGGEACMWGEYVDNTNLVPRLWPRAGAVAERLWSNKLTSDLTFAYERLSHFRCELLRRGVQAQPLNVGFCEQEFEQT
T1 sequence (P07686 122-556 partner): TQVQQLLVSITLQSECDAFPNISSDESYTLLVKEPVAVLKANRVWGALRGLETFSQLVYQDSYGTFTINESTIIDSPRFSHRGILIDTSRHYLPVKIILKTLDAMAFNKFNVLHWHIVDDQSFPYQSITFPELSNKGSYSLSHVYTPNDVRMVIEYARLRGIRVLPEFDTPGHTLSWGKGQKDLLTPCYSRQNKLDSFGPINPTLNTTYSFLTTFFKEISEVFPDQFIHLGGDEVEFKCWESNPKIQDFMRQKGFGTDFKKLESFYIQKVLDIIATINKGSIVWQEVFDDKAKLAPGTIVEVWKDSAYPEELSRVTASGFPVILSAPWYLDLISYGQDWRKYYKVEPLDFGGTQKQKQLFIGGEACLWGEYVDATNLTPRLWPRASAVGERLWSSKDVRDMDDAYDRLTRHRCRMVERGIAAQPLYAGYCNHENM
Excerpt: We therefore evaluated the ability of these proteostasis regulators to restore partial function to HexA, a heterodimeric enzyme composed of α- and β-subunits that degrades GM2 gangliosides in the lysosome. Mutations in the β-hexosaminidase A α-subunit can cause extensive ERAD of HexA, leading to Tay-Sachs disease (TSD). Jeyakumar et al., Neuropathol Appl Neurobiol 28: 343-357, 2002. HexA activity was studied in a compound heterozygous fibroblast cell line (GM13204), harboring one of the most prevalent β-hexosaminidase A α-subunit mutations (G269S) found in Tay-Sachs patients and a second mutated HexA allele (1278insTATC) with a stop codon. […] Tropak et al., J Biol Chem 279: 13478-13487, 2004.
The Hex α-site cell assay has been previously described. Tropak et al., J Biol Chem 279: 13478-13487, 2004. Cells were plated as described for the GC assay. After 1 to 8 days of incubation the medium was removed, cells were washed with PBS, and lysed with 60 μl of 10 mM citrate/phosphate buffer pH 4.2 (CP buffer) containing 0.5% human serum albumin and 0.5% Triton X-100. 30 μl of aliquots were transferred to a 96-well plate and Hex α-site activity was measured by adding 30 μl of 3.2 mM MUGS in CP buffer to each well and incubating the plates at 37° C. for 1 to 7 hour. The reaction was stopped by adding 200 μl of 0.1 M 2-amino-2-methyl-1-propanol pH 10.5 and the fluorescence was measured (excitation 365 nm, emission 450 nm).

L444P GC = molecular target: T2, L444P GC (Homo sapiens, UniProt P04062, L483P); assay: GC activity assay in L444P GC Gaucher patient-derived fibroblasts; type: cell-based; details: for L444P GC activity, maximum fold increase: 30 μM
T2 construct: a L444P GC Gaucher fibroblast cell line (GM08760); host or cells: Gaucher patient-derived skin fibroblasts
T2 sequence (P04062 40-536 L483P): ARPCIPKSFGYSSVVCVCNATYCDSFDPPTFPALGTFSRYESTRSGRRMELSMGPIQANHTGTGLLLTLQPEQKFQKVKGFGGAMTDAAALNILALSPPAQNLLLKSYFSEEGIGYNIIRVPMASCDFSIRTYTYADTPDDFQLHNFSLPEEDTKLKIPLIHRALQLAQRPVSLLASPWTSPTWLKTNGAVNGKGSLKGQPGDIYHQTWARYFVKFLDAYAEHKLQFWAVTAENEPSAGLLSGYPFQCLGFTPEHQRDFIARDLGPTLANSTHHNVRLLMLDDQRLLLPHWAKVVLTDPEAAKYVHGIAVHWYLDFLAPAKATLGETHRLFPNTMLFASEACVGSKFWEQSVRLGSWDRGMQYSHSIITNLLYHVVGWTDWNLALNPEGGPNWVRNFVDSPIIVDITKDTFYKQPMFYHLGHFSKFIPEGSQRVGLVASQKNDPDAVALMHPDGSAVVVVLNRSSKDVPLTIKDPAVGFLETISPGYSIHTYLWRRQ

Ca^2+ channel = details: cited from earlier work; for IC50: previously reported, Li et al., J Med Chem 35: 3246-3253, 1992, read-out: Ca^2+ channel blocker IC50
[1] = 7 days, intact cell GC activity assay (FIG. 19D)

Hex α-site activity as % of cellular WT Hex α-site activity (G269S/1278insTATC HexA): 25%
cellular Hex α-site activity, fold increase (G269S/1278insTATC HexA): 2.5 fold
SMILES: CC(=O)N[C@H]1C(O)N[C@H](CO)[C@H](O)[C@@H]1O (stereo partly drawn) [ADNJ, 2-Acetamido-2-deoxynojirimycin]

L444P GC activity, maximum fold increase (L444P GC; [1]): 1.3 fold
SMILES: CN(C)CCN1C(=O)[C@H](O)[C@H](c2ccc(O)cc2)Sc2ccccc21 [Compound 3, (2S,3S)-5-[2-(Dimethylamino)ethyl]-2,3-dihydro-3-hydroxy-2-(4-hydroxyphenyl)-1,5-benzothiazepin-4(5H)-one]
IC50 (Ca^2+ channel): 45.5 µM

L444P GC activity, maximum fold increase (L444P GC; [1]): 1.2 fold
SMILES: CNCCN1C(=O)[C@H](O)[C@H](c2ccc(O)cc2)Sc2ccccc21 [Compound 4, (2S,3S)-2,3-Dihydro-3-hydroxy-2-(4-hydroxyphenyl)-5-[2-(methylamino)ethyl]-1,5-benzothiazepin-4(5H)-one]
IC50 (Ca^2+ channel): 127 µM

effect on L444P GC activity (L444P GC; 0.3 to 100 μM, 7 days, intact cell GC activity assay (FIG. 19D)): do not increase L444P GC activity
SMILES: COc1ccc([C@@H]2Sc3ccccc3NC(=O)[C@@H]2O)cc1 [Compound 6]
Ca^2+ channel antagonist activity (Ca^2+ channel; according to reported SAR studies, lack basic amino nitrogen pharmacophore): not Ca^2+ channel antagonists

SMILES: COc1ccc(S(=O)(=O)N(CCO)c2ccccc2CN(C)C/C=C/c2ccc(Cl)cc2)cc1 [KN93]
effect on L444P GC activity (L444P GC; IP3R inhibitors (FIG. 33)): None of the compounds enhanced L444P GC activity

SMILES: C1CCCC2CCCN3CCC(CCCCCCC4CCCN5CCC(CC1)OC45)OC23 (stereo not drawn) [XeC]
effect on L444P GC activity (L444P GC; IP3R inhibitors (FIG. 33)): None of the compounds enhanced L444P GC activity

SMILES: CCN(CC)CCCC(C)Nc1ccnc2cc(Cl)ccc12 (stereo not drawn) [chloroquinine]
effect on L444P GC activity (L444P GC; IP3R inhibitors (FIG. 33)): None of the compounds enhanced L444P GC activity

GC proteostasis regulator function (L444P GC; L444P GC cells): not a GC proteostasis regulator
SMILES: CC(=O)N[C@@H](CSC(=O)[C@]1([C@@H](O)C(C)C)NC(=O)[C@H](C)[C@@H]1O)C(=O)O [lactacystin]

SMILES: C=C[C@H]1C[N@@]2CC[C@H]1C[C@H]2[C@H](O)c1ccnc2ccc(OC)cc12 [quinine]
effect on L444P GC activity (L444P GC; IP3R inhibitors (FIG. 33)): None of the compounds enhanced L444P GC activity

effect on L444P GC activity, intact cell GC enzyme assay (L444P GC; thermosensitive TRP channel modulators, 5-day incubation): notably increased
SMILES: N.N.N.N.N.N.N.N.N.N.N.N.N.N.[Cl-].[Cl-].[Cl-].[Cl-].[Cl-].[Cl-].[O-2].[O-2].[Ru+3].[Ru+3].[Ru+4] [ruthenium red]

SMILES: C/C=C(/C)C(=O)O[C@H]1C(C)=C2[C@H]([C@@H]1OC(=O)CCCCCCC)[C@@](C)(OC(C)=O)C[C@H](OC(=O)CCC)[C@@]1(O)[C@H]2OC(=O)[C@@]1(C)O [thapsigargin]
effect on L444P GC folding, trafficking and lysosomal activity (L444P GC; thapsigargin (FIG. 25)): does not enhance
concentration above which L444P GC activity is decreased significantly (L444P GC; thapsigargin alone, 7-day incubation): > 1 nM
effect on GC activity in L444P GC cells (L444P GC; varying concentrations co-applied with 10 μM diltiazem, 7 days): dose-dependent decrease of GC activity

SMILES: C[CH2][Hg][S]c1ccccc1C(=O)[O-].[Na+] [thimerosal]
effect on L444P GC activity (L444P GC; IP3R inhibitors (FIG. 33)): None of the compounds enhanced L444P GC activity
